The source of these data is patent US10722480B2, “Agent for controlling cells constituting cancer microenvironment or inflammatory microenvironment” (The University of Tokyo, priority 2015, dated 2020).

For one assay, the target named is T1, FROUNT-CCR5 interaction (Homo sapiens, UniProt Q9BW27).
T1 construct: made in house
T1 sequence (Q9BW27 500-656): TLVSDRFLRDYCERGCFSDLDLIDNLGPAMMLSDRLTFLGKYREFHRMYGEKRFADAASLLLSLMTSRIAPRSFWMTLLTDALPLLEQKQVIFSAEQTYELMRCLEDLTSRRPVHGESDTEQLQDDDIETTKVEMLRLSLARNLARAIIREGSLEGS
Put plainly: HTRF binding inhibition assay, FROUNT-CCR5 interaction. The following applies: result in words. The protocol: For the screening, a compound library containing 131,200 kinds of compounds dissolved in DMSO at a concentration of 10 mM or 2 mM (obtained from Open Innovation Center for Drug Discovery, the University of Tokyo) was used. The HTRF assay was carried out using a 384-well low-dose white microplate (Corning Coaster; catalog number 3676). In each well, 4 μL of a solution of 20 nM GST fusion FROUNT protein (a recombinant polypeptide prepared by fusing GST to aa 500-656 of SEQ ID NO:2), and DMSO or test compounds were mixed with a binding buffer (10 mM HEPES [pH 7.4], 0.2 M potassium fluoride, 10 mM NaCl, 0.1% Tween 20, and 0.5% bovine serum albumin [BSA]), and the plate was incubated at room temperature for 30 minutes. […]. After incubation at room temperature for 20 hours, the HTRF signal was measured at emission wavelengths of 620 nm and 665 nm using a multilabel counter EnVision (PerkinElmer).
(§1) By the same HTRF assay as described above, the abilities of disulfiram to inhibit the FROUNT-CCR2 interaction or the FROUNT-CCR5 interaction were investigated. As the CCR5 pro-C peptide, the 16 residues […] (SEQ ID NO:4) in the C-terminal region of CCR5 was used. As a control, the p53-MDM2 interaction (which is inhibited by an MDM-2-specific inhibitor Nutlin), which is also a helix peptide-protein interaction like the interaction between FROUNT and CCR2 or CCR5 but is not related thereto, was used.
(In TR-FRET formats the signal depends on donor and acceptor labels being close together.)

The next assay deals with p53-MDM2 interaction (Homo sapiens, UniProt Q00987). Put plainly: HTRF binding inhibition assay, p53-MDM2 control interaction.
Source text: as §1

For assay [1], the target named is T2, Full-length FROUNT protein (Homo sapiens, UniProt Q9BW27).
T2 construct: made in house
T2 sequence (Q9BW27 1-656): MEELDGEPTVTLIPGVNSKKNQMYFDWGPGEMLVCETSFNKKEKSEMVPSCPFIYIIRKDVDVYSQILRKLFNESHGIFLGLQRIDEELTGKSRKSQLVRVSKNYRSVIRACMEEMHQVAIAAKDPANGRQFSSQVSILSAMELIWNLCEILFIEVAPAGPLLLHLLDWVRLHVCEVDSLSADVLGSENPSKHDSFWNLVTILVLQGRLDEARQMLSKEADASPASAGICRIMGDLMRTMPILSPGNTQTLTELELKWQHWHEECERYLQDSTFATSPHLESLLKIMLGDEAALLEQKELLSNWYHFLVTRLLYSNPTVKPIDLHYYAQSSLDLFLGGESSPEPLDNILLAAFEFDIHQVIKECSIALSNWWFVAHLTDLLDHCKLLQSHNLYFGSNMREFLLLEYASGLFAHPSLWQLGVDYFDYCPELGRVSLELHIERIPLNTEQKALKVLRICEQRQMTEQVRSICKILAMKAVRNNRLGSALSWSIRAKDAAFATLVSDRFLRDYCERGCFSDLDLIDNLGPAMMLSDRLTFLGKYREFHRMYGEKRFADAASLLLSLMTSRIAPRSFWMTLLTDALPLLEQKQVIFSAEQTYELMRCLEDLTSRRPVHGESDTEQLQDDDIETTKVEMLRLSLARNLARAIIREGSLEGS
The experiment in a line: Surface plasmon resonance binding to FROUNT. The following applies: SPR. The protocol:
Interactions between FROUNT and compounds in the library were analyzed by surface plasmon resonance (SPR) using Biacore […] (GE Healthcare). Full-length FROUNT protein (SEQ ID NO:2) (Esaki, K. et al. Protein Expr Purif 77, 86-91, (2011)) was immobilized on a CM5 sensor chip. Solutions of disulfiram prepared by serial dilution in HBS-EP buffer containing 2% DMSO (GE Healthcare) were applied to the sensor chip at a flow rate of 30 μL/min. The resonance unit (RU) was measured during the process from the binding to the washing to analyze the binding dynamics. Biacore T100 evaluation software was used to carry out solvent correction for DMSO.
In general terms: In SPR one partner is held on a chip, and binding of the other changes the refractive index at the surface.

In the next assay the target is T3, FROUNT protein (Homo sapiens, UniProt Q9BW27).
T3 construct: A fragment consisting of the region of the 500th to 656th amino acids of FROUNT protein; made in house
T3 sequence (Q9BW27 500-656): T1 sequence (Q9BW27 500-656)
Put plainly: NMR analysis of binding to FROUNT fragment. The method, then: A fragment consisting of the region of the 500th to 656th amino acids of FROUNT protein and a CCR2 pro-C region fragment of 16 residues (SEQ ID NO:3) were prepared, and the binding state between the two fragments and the binding state between FROUNT protein and disulfiram were investigated by NMR analysis.

Assay [2] deals with infiltrating cells in the peritoneum (macrophages, neutrophils). The experiment in a line: In vivo chemotaxis assay (thioglycolate peritonitis). The arrangement: species or system mouse. The following applies: wild-type mice. The protocol:
Peritonitis was induced by intraperitoneal administration of 2 mL of 4% thioglycolate medium (Difco) to each of FNT^flox/flox mice and FNT-cKO mice. Infiltrating cells in the peritoneum were collected by injecting 5 mL of ice-cold PBS into the abdominal cavity and giving a gentle massage. The collected cells was washed with PBS containing 0.1% FBS, and then subjected to flow cytometry analysis to investigate the cell number and the cell populations. The same treatment as in the above-described section 8 was carried out on wild-type mice to induce peritonitis, and infiltrating cells in the peritoneum were collected. After washing the collected cells, flow cytometry analysis was carried out to investigate the cell number and the cell populations. For evaluation of disulfiram, disulfiram was dissolved in DMSO, and then diluted in 2% Tween 80-containing physiological saline to each concentration shown in the figure. Each resulting disulfiram solution was administered to mice 1 day before and 30 minutes before the administration of thioglycolate.

pIC50: −log10 of the molar value.

p53-MDM2 interaction, sequence (Q00987 whole entry): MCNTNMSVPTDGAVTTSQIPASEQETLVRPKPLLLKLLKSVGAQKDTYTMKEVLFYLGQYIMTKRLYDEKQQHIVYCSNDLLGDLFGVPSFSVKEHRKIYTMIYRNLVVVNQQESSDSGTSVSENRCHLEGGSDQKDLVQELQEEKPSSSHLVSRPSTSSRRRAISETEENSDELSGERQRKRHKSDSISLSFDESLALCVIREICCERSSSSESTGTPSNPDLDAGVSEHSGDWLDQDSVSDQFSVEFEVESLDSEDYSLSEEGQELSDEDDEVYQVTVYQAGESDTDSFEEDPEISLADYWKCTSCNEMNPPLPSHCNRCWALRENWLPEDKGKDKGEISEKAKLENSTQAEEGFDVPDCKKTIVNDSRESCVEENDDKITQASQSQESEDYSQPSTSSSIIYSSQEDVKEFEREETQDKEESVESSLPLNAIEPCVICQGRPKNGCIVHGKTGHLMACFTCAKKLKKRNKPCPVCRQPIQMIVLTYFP

As for `CCN(CC)C(=S)SSC(=S)N(CC)CC` [DSF, disulfiram], the “inhibition of FROUNT-CCR5 interaction” value at FROUNT-CCR5 interaction was “selectively inhibited”. In addition, the pIC50 (commonly −log10 of the IC50, conventionally taken in molar units) on p53-MDM2 interaction (p53-MDM2 control interaction) was below 6.00. Besides, the “inhibition of p53-MDM2 interaction” value at p53-MDM2 interaction (result in words) was “did not inhibit”. The “binding to FROUNT protein” value in assay [1] is “directly bound”. Further, the “interaction with FROUNT / binding site on FROUNT” value at FROUNT protein is listed as “directly interact”. For the same compound, in assay [2], the “infiltration of macrophages into peritoneal inflammatory sites” value is given as “reduced” and the “infiltration of neutrophils into peritoneal inflammatory sites” value is recorded as “not influenced”.
